Laboratory results as given in patent EP0590885B1, “Antibiotic carbapenem compounds” (ZENECA LIMITED, priority 1992, dated 1994).
≈ marks a conversion by molar mass, not a printed value.

Assays:
Assay in all cases: MIC by agar-dilution technique, Diagnostic Sensitivity Test
Assay type in all cases: cell-based
[1] = test system: E. coli TEM; conditions: Escherichia coli
From the text: (§1) The following results were obtained for representative compounds on a standard in vitro test system using Diagnostic Sensitivity Test. The antibacterial activity is described in terms of the minimum inhibitory concentration (MIC) determined by the agar-dilution technique with an inoculum size of 10^4 CFU/spot.

[2] = test system: Enterobacter cloacae 108; conditions: inoculum size 10^4 CFU/spot
From the text: as §1

[3] = test system: S. aureus 147N; conditions: Staphylococcus aureus, inoculum size 10^4 CFU/spot
From the text: as §1

[4] = test system: Enterobacter cloacae -029; conditions: inoculum size 10^4 CFU/spot
From the text: as §1

Compound	MIC [1] [mg/L]	MIC [2] [mg/L]	MIC [3] [mg/L]	MIC [4] [mg/L]
C[C@@H](O)[C@H]1C(=O)N2C(C(=O)O)=C(S[C@@H]3CN[C@H](C(=O)Nc4cccc(OCC(=O)O)c4)C3)[C@H](C)[C@H]12 [Example 3, (1R,5S,6S,8R,2'S,4'S)-2-(2-(3-Carboxymethoxyphenylcarbamoyl)pyrrolidin-4-ylthio)-6-(1-hydroxyethyl)-1-methylcarbapenem-3-carboxylic acid]	0.03 (≈ 0.0593 µM)	1 (≈ 1.98 µM)	0.25 (≈ 0.495 µM)	0.06 (≈ 0.119 µM)
C[C@@H](O)[C@H]1C(=O)N2C(C(=O)O)=C(S[C@@H]3CN[C@H](C(=O)Nc4cccc(C(=O)NCC(=O)O)c4)C3)[C@H](C)[C@H]12 [Example 7, (1R,5S,6S,8R,2'S,4'S)-2(2-(3-Carboxymethylaminocarbonylphenylcarbamoyl)-pyrrolidin-4-ylthio)-6-(1-hydroxyethyl)-1-methylcarbapenem-3-carboxylic acid]	0.03 (≈ 0.0563 µM)	1 (≈ 1.88 µM)	0.25 (≈ 0.469 µM)	0.13 (≈ 0.244 µM)
C[C@@H](O)[C@H]1C(=O)N2C(C(=O)O)=C(S[C@@H]3CN[C@H](C(=O)Nc4cc(/C=C/C(=O)O)ccc4O)C3)[C@H](C)[C@H]12 [Example 2, (1R,5S,6S,8R,2'S,4'S)-2-(2-(3-(E-2-Carboxy-1-ethenyl)-6-hydroxyphenylcarbamoyl)pyrrolidin-4-ylthio)-6-(1-hydroxyethyl)-1-methylcarbapenem-3-carboxylic acid]	0.06 (≈ 0.116 µM)	4 (≈ 7.73 µM)	0.25 (≈ 0.483 µM)	0.25 (≈ 0.483 µM)
C[C@@H](O)[C@H]1C(=O)N2C(C(=O)O)=C(S[C@@H]3CN[C@H](C(=O)Nc4cccc(/C=C/C(=O)O)c4)C3)[C@H](C)[C@H]12 [Example 1, (1R,5S,6S,8R,2'S,4'S)-2-(2-(3-(E-2-Carboxy-1-ethenyl)phenylcarbamoyl)pyrrolidin-4-ylthio)-6-(1-hydroxyethyl)-1-methylcarbapenem-3-carboxylic acid]	0.03 (≈ 0.0598 µM)	2 (≈ 3.99 µM)	0.13 (≈ 0.259 µM)	0.13 (≈ 0.259 µM)
CO/N=C(\C(=O)N[C@@H]1C(=O)N2C(C(=O)O)=C(CSc3nc(=O)c(=O)[nH]n3C)CS[C@H]12)c1csc(N)n1 [ceftriaxone, reference compound]	0.03 (≈ 0.0541 µM)	32 (≈ 57.7 µM)	2 (≈ 3.61 µM)	0.06 (≈ 0.108 µM)
